Test results from patent US8962024B2, “Method for treating primary insomnia” (Neurim Pharmaceuticals (1991) Ltd, priority 2001, dated 2015).

Assays:
[1] = tested on: primary insomnia patients (aged 20-80 years); assay: Subjectively assessed quality of sleep and daytime alertness on 100 mm line (Example 3); format: in vivo, human; settings: for Change in perceived daytime alertness, mean in mm / Change in perceived quality of sleep, mean in mm: 2 mg per night prolonged-release, 3 weeks
Protocol: The effect of a prolonged-release formulation of melatonin on subjectively assessed sleep quality and daytime vigilance in 170 elderly primary insomnia patients (aged 68.5 [SD 8.3] years) were studied in a randomized, double-blind, two parallel group study. The subjects were treated for 2 weeks with placebo to establish baseline characteristics and then for 3 weeks with melatonin (2 mg per night of prolonged-release formulation) or placebo. On the last three days of the baseline and treatment periods patients were asked to assess the quality of their sleep the previous night and their feeling in the morning. The quality of sleep question was “How would you compare the quality of sleep using the medication with non-medicated (your usual) sleep?” The patients marked the level of their perceived quality of sleep on a 100 mm, non-hatched horizontal line with two endpoints. The left endpoint was labeled “more restless than usual” and the right endpoint was labeled “more restful than usual”. The waking state question was “How do you feel now?” The patients marked the level of their perceived waking state on a 100 mm, non-hatched horizontal line with two endpoints. The left endpoint was labeled “tired” and the right endpoint was labeled “alert”. The distance of the patient mark from the right endpoint in mm was measured (a reduction in value therefore indicates a better sleep or less tired state). The mean distance across the three nights was calculated. The effect of melatonin on subjectively assessed sleep quality and daytime vigilance in 131 primary insomnia patients (aged 20-80 years) were studied in a randomised, double-blind, parallel group study. The subjects were treated for 1 week with placebo to establish baseline characteristics and then for 3 weeks with melatonin (2 mg per night of prolonged-release formulation) or placebo. On the last three days of the baseline and treatment periods patients were asked to assess the quality of their sleep the previous night and their feeling at daytime as described in Example 2.

[2] = tested on: elderly primary insomnia patients; assay: Full-night polysomnographic recordings after 3 weeks of treatment (Example 1); format: in vivo, human
Protocol: (§1) The effect of a prolonged-release formulation of melatonin on sleep quantity and quality in 40 elderly primary insomnia patients (aged 76 [SD 8] years) were studied in a randomized, double-blind, two parallel group study. The subjects were treated for 3 weeks every evening with melatonin (2 mg prolonged-release formulation) or placebo. Full-night polysomnographic recordings were performed on the last two days of treatment to measure quantitative aspects of sleep. On each morning following sleep recording in the laboratory, a battery of psychomotor tests was taken by all patients to assess daytime vigilance. In addition, patients recorded every day in diaries their perceived quality of sleep the previous night.

[3] = tested on: elderly patients with sleep maintenance insomnia; settings: immediate and controlled release formulations, 0.5 and 5 mg, cited from earlier work
[4] = tested on: patients with psychophysiological insomnia; settings: 5 mg at 8:00 pm for 1 week; cited from earlier work
[5] = tested on: polysomnographically pre-screened insomniacs; settings: 1 and 5 mg at 10:45 pm for one night each, cited from earlier work
[6] = tested on: elderly primary insomnia patients; assay: Battery of psychomotor tests to assess daytime vigilance (Example 1); format: in vivo, human; settings: 2 mg prolonged-release formulation
Protocol: as §1

[7] = tested on: elderly primary insomnia patients; assay: Patient diaries of perceived quality of sleep (Example 1); format: in vivo, human; settings: 2 mg prolonged-release formulation, 3 weeks
Protocol: as §1

insomniac patients = settings: 75 mg per os at 10 PM daily for 14 consecutive days, cited from earlier work
[8] = tested on: elderly primary insomnia patients; assay: Subjectively assessed quality of sleep and daytime alertness on 100 mm line (Example 2); format: in vivo, human; settings: 2 mg per night prolonged-release, 3 weeks
Protocol: The effect of a prolonged-release formulation of melatonin on subjectively assessed sleep quality and daytime vigilance in 170 elderly primary insomnia patients (aged 68.5 [SD 8.3] years) were studied in a randomized, double-blind, two parallel group study. The subjects were treated for 2 weeks with placebo to establish baseline characteristics and then for 3 weeks with melatonin (2 mg per night of prolonged-release formulation) or placebo. On the last three days of the baseline and treatment periods patients were asked to assess the quality of their sleep the previous night and their feeling in the morning. The quality of sleep question was “How would you compare the quality of sleep using the medication with non-medicated (your usual) sleep?” The patients marked the level of their perceived quality of sleep on a 100 mm, non-hatched horizontal line with two endpoints. The left endpoint was labeled “more restless than usual” and the right endpoint was labeled “more restful than usual”. The waking state question was “How do you feel now?” The patients marked the level of their perceived waking state on a 100 mm, non-hatched horizontal line with two endpoints. The left endpoint was labeled “tired” and the right endpoint was labeled “alert”. The distance of the patient mark from the right endpoint in mm was measured (a reduction in value therefore indicates a better sleep or less tired state). The mean distance across the three nights was calculated.

[9] = tested on: healthy elderly volunteers; assay: Battery of psychomotor tasks after an evening tablet (Example 4); format: in vivo, human
Protocol: (§2) The effect of melatonin (2 mg prolonged-release formulation), N, N, 6-trimethyl-2-p-tolylimidazo[1,2-a]pyridine-3-acetamide (zolpidem; 10 mg) and placebo on psychomotor skills and driving performance were assessed in 16 healthy elderly volunteers age 59.4 years (SD 3.2). In a randomized, double-blind, crossover study the subjects were given a tablet of placebo in the evening to establish baseline and then a tablet of melatonin, zolpidem or placebo in a random order in the evening with one week with no treatment in between treatments. A battery of psychomotor tasks, driving performance and wake EEG during a driving test were studied in the patients at pre-selected intervals after the administration of the tablet.

[10] = tested on: healthy elderly volunteers; assay: Driving performance test after an evening tablet (Example 4); format: in vivo, human; settings: 2 hours post-dosing; zolpidem 10 mg, melatonin prolonged release 2 mg
Protocol: as §2

[11] = 2 mg prolonged-release formulation, 3 weeks, versus placebo
[12] = zolpidem 10 mg single evening tablet

For `COc1ccc2[nH]cc(CCNC(C)=O)c2c1` [melatonin], the “quality of sleep and daytime alertness” value ([1]; 55 years and older patients) was “improvement”, the “Change in perceived daytime alertness, mean in mm” value ([1]; Patients aged 55 and over) was −16.3 mm and the “Change in perceived quality of sleep, mean in mm” value ([1]; Patients aged 55 and over) was −13.1 mm. For the same molecule, the “Change in perceived daytime alertness, mean in mm” value ([1]; Patients aged less than 55) was −4.0 mm, the “Change in perceived quality of sleep, mean in mm” value ([1]; Patients aged less than 55) was −1.6 mm and the “quality of sleep and daytime alertness compared to placebo” value ([1]; patients <55 years of age) was “significant worsening”. The “sleep onset latency (SL) time shortened on average, compared to placebo” value ([2]; 2 mg prolonged-release formulation every evening for 3 weeks, P=0.011) was 9 min, the “duration of wake prior sleep onset (DWAPSO) compared to placebo” value ([2]; 2 mg prolonged-release formulation, 3 weeks, p=0.011) was “improved significantly” and the “% of time spent asleep prior to sleep onset (DWAPSOP) compared to placebo” value ([2]; 2 mg prolonged-release formulation, 3 weeks, p=0.02) was “improved significantly”. For the same molecule, the “sleep architecture or all night EEG spectral analysis” value [2, 11] was “no differences between groups”, the “sleep maintenance variables (number of awakenings, DWASO, sleep efficiency, total sleep time)” value [2, 11] was “no differences between melatonin and placebo” and the sleep latency ([3]; 30 min before sleep) was “reduced”. The “reported sleep quality or daytime measure of mood and alertness” value [3] was “No melatonin-induced changes”, the “wake time after sleep onset or total sleep time” value [3] was “did not alter” and the “patients unable to distinguish the period of active melatonin treatment” value [4] was 8 patients out of 15. The “sleep quantity or quality” value [4] was “no reported change”, the “sleep latency, sleep efficiency, total sleep time, wake after sleep onset” value ([5]; 10 insomniacs) was “did not alter” and the patient-reported sleep quality [5] was “improved”. The “rested in the morning, patient-reported” value [5] was “not more rested”, the “total sleep time as believed by the patients” value [5] was “shorter” and the “Critical Flicker fusion test and total reaction time, melatonin vs. placebo” value ([6]; at the end of treatment) was “significant treatment effects”. For the same molecule, the “psychomotor skills compared to placebo-treated group” value ([6]; morning after sleep recording) was “significantly higher”, the “ease of getting to sleep as evaluated in diaries, compared to placebo” value [7] was “did not evaluate the ease of getting to sleep as being better” and the “quality of sleep as judged by patients in diaries” value [7] was “improved”. For the same molecule, the “subjective assessment of total sleep time and daytime alertness” value (insomniac patients; 13 patients) was “significant increase”, the “patients reporting no significant effect on subjective feelings of well-being” value (insomniac patients) was 7/13 and the “quality of sleep and daytime alertness compared to placebo” value [8] was “significantly improved”. The “Change in perceived quality of sleep, change in mm mean” value ([8]; 170 elderly patients, reduction = better sleep) was −24.3 mm and the “Change in perceived daytime alertness, change in mm mean” value ([8]; 170 elderly patients, reduction = less tired) was −16.8 mm.

With `Cc1ccc(-c2nc3ccc(C)cn3c2CC(=O)N(C)C)cc1` [zolpidem, N, N, 6-trimethyl-2-p-tolylimidazo[1,2-a]pyridine-3-acetamide] the “Memory efficiency, both recalls (immediate and delayed), compared to placebo and melatonin 2 mg” value ([9]; zolpidem 10 mg) was “decreased”, the “impairments compared to placebo across measures of attention, episodic secondary memory and motor coordination” value [9, 12] was “several acute impairments” and the “time post-dosing by which acute impairments were resolved” value [9, 12] was at most 12.5 h. For the same molecule, the number of collisions [10] was “increased number of collisions”.
